This is an account of results in patent US9249163B2, “PDE10a inhibitors for the treatment of type II diabetes” (Janssen Pharmaceutica, NV, priority 2013, dated 2016).

Where a name gives a salt, the structure may show the parent alone.

Data set [1] deals with Rat recombinant PDE10a (rPDE10a) (Rattus norvegicus (Rat), UniProt Q9QYJ6). As to the kind of experiment: In vitro assay PDE10a (rat recombinant PDE10a, SPA). The data set is classed as biochemical. Particulars: 60 nM cAMP, 60 min at rt, read-out: rPDE10a2 IC50. Summed up: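 Rat PDE10a expressed in Sf9 cells (baculovirus) and Ni-sepharose purified. Incubated with compound for 60 min at rt in 50 mM Tris pH 7.8, 8.3 mM MgCl2, 1.7 mM EGTA with 60 nM cAMP plus 0.008 μCi ^3H-cAMP (final), 1% DMSO. Read-out by PDE SPA bead scintillation counting (cpm), no-enzyme blank.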

Data set [2] concerns the target Human recombinant PDE10A2 (Homo sapiens (Human), UniProt Q9Y233). Kind of data set: In vitro hPDE10a (human recombinant PDE10A2, scintillation proximity assay). It is filed as biochemical. To be noted: human recombinant PDE10A2, 60 nM cAMP, 60 min at room temperature; read-out: hPDE10a2 IC50.
Data set [3] in a line: PDE10a-perfused brain permeability study (plasma and brain concentrations). Particulars: male, Sprague-Dawley, rat; for Kp at 2 h: brain/plasma.
Protocol: Drug administration by oral gavage, subcutaneous injection or intravenous was carried out using male Sprague Dawley rats under IACUC protocol (SH-MET3010). Male Sprague Dawley rats (Charles River) ˜300-350 g were maintained on a 4% standard rodent diet (Test Diet 5001). They are allowed ad libitum access to water and food. Room temperature was maintained at 64° F. and humidity at 30-70%.
Three animals per compound were provided a dose of 2 mg/mL in 20% HpbCD/Tris pH 8 by tail i.v. or 30 mpk p.o. or s.c. in 20% HpbCD/Tris pH 8, with PDE10a antagonists. A first blood sample was collected at 30 min via retro-orbital sinus (anesthetic by 70% CO2/30% O2) into heparinzed plasma separator tubes. The blood was centrifuged and 100 uL plasma was placed into a 96 well plate and saved on dry ice.
After the 120 min, the final blood sample was collected via retro-orbital sinus under anesthesia by IP 0.5 cc injection of a 4/1 mixture of Ketaset: AnaSed [(prepared 10 mL Ketaset (100 mg/mL Ketamine)+2.5 mL AnaSed (20 mg/mL Xylazine)]. The rats were then perfused with 400 mL heparinized saline (10,000 units/L) through the left ventricle of the heart; the brains were then removed (not including the medulla), weighed and homogenized in PBS (4 mL/g tissue). The samples were stored at −80° C. and submitted for chemical analysis of blood and brain concentrations. Endpoints of sample analysis consists of the plasma concentrations at 30 and 120 min, plus brain concentrations at 120 min.

Rat recombinant PDE10a (rPDE10a), sequence (Q9QYJ6 whole entry): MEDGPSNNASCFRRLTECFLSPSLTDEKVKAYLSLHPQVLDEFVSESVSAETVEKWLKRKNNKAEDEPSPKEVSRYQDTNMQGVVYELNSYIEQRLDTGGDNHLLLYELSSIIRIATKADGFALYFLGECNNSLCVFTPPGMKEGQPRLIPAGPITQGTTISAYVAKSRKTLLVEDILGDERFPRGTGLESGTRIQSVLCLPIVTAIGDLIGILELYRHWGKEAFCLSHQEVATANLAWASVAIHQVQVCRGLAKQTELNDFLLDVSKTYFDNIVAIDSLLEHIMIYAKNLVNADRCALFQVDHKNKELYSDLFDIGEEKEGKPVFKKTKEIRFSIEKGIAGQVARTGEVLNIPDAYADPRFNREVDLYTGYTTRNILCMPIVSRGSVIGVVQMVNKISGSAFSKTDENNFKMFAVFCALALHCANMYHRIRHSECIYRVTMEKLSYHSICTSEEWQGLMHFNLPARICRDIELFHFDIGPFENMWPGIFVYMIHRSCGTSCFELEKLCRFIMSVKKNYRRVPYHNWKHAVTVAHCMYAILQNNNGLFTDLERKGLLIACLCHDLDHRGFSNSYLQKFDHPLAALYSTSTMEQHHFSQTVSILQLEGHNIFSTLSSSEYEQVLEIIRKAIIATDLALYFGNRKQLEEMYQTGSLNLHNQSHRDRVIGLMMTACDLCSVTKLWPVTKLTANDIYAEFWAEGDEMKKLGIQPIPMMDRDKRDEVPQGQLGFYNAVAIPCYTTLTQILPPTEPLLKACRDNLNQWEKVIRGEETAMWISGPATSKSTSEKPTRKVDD
Human recombinant PDE10A2, sequence (Q9Y233 267-1055): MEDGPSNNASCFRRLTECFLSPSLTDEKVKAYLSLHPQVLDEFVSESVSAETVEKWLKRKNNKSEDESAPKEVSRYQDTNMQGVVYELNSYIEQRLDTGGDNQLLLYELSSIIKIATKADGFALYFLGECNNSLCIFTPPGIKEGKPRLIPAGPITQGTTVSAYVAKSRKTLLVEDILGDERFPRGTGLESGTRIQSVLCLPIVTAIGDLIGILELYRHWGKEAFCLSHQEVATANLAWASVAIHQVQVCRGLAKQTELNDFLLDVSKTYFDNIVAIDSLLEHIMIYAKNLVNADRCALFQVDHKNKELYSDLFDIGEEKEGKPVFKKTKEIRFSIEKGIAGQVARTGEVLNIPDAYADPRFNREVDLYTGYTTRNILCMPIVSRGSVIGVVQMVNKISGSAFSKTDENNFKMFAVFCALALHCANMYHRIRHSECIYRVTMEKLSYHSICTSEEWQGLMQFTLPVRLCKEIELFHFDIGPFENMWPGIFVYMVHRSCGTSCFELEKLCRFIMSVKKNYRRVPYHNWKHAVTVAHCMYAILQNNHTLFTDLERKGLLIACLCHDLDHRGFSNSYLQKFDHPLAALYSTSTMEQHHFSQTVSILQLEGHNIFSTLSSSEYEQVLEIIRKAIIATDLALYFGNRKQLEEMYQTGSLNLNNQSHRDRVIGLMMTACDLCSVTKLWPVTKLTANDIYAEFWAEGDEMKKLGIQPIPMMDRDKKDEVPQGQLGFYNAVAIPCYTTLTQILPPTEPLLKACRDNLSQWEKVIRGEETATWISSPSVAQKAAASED

One may read the IC50 as the concentration at which inhibition is half-maximal. Usually Kp stands for the ratio of the level in a tissue or fluid to that in plasma or blood. On to `O=C(Nc1cn2c(-c3ccc(N4CCNCC4)nc3)cnc(N3CCOCC3)c2n1)c1ccc2ccccc2n1` [Cpd 125, N-(8-Morpholino-5-(6-(piperazin-1-yl)pyridin-3-yl)imidazo[1,2-a]pyrazin-2-yl)quinoline-2-carboxamide hydrochloric acid salt], for which the IC50 in data set [1] worked out at 339 nM; in data set [2], 309 nM. In addition, the results for the concentration at 2 h in data set [3] (brain) and in data set [3] (plasma) were 54.9 ng/g and 45.9 ng/mL, respectively. In addition, in data set [3], the Kp at 2 h was found to be 1.2.

For the compound `O=C(O)CNc1ccc(-c2cnc(N3CCOCC3)c3nc(COc4ccc5ccccc5n4)cn23)cn1` [Cpd 107, 2-((5-(8-Morpholino-2-((quinolin-2-yloxy)methyl)imidazo[1,2-a]pyrazin-5-yl)pyridin-2-yl)amino)acetic acid trifluoroacetic acid salt], the IC50 in data set [1] and in data set [2] was 2 nM each time. The concentration at 2 h was 0 ng/g in data set [3] (brain) and 22.5 ng/mL in data set [3] (plasma). This compound registered a Kp at 2 h in data set [3] of 0.

In the case of `C(=C\c1cn2c(-c3ccc(-c4nnc[nH]4)nc3)cnc(N3CCOCC3)c2n1)/c1ccc2ccccc2n1` [Cpd 91, (E)-4-(5-(6-(2H-1,2,4-Triazol-3-yl)pyridin-3-yl)-2-(2-(quinolin-2-yl)vinyl)imidazo[1,2-a]pyrazin-8-yl)morpholine], the IC50 was found to be 3 nM in data set [1] and 12 nM in data set [2]. Further, the results for the concentration at 2 h in data set [3] (brain) and in data set [3] (plasma) were 112 ng/g and 209 ng/mL, respectively. The Kp at 2 h in data set [3] is 0.55.

In the case of `CS(=O)(=O)NC(=O)c1ccc(-c2cnc(N3CCOCC3)c3nc(COc4ccc5ccccc5n4)cn23)cn1` [Cpd 76, N-Methanesulfonyl-5-[8-(morpholin-4-yl)-2-[(quinolin-2-yloxy)methyl]imidazo[1,2-a]pyrazin-5-yl]pyridine-2-carboxamide], the IC50 in data set [1] came to 3 nM; in data set [2] it was 2 nM. Also, the concentration at 2 h was 0 ng/g in data set [3] (brain) and 115 ng/mL in data set [3] (plasma). For the same compound, the Kp at 2 h in data set [3] was 0.

For the compound `C(=C\c1cn2c(-c3cnc4nc[nH]c4c3)cnc(N3CCOCC3)c2n1)/c1ccc2ccccc2n1` [Cpd 93, (E)-4-(5-(3H-Imidazo[4,5-b]pyridin-6-yl)-2-(2-(quinolin-2-yl)vinyl)imidazo[1,2-a]pyrazin-8-yl)morpholine], the values for the IC50 in data set [1] and in data set [2] were 10 nM and 13 nM, respectively. The concentration at 2 h in data set [3] (brain) is 0 ng/g; in data set [3] (plasma), 98 ng/mL. Moreover, in data set [3], the Kp at 2 h was found to be 0.

For `c1ccc2nc(OCc3cn4c(-c5ccc(N6CCOCC6)nc5)cnc(N5CCOCC5)c4n3)ccc2c1` [Cpd 131, 4-(5-(8-Morpholino-2-((quinolin-2-yloxy)methyl)imidazo[1,2-a]pyrazin-5-yl)pyridin-2-yl)morpholine], the IC50 in data set [1] was determined as 11 nM; in data set [2] it was 51 nM. Further, the concentration at 2 h came to 57.3 ng/g in data set [3] (brain) and 28.1 ng/mL in data set [3] (plasma). The same compound showed a Kp at 2 h in data set [3] of 2.04.

On to `c1ccc2nc(OCc3cn4c(-c5ccc(Sc6cnn[nH]6)nc5)cnc(N5CCOCC5)c4n3)ccc2c1` [Cpd 92, 4-(5-(6-((1H-1,2,3-Triazol-5-yl)thio)pyridin-3-yl)-2-((quinolin-2-yloxy)methyl)imidazo[1,2-a]pyrazin-8-yl)morpholine], for which the figures for the concentration for half-maximal inhibition (IC50) in data set [1] and in data set [2] were 3 nM and 6 nM, respectively. The concentration at 2 h is 78.3 ng/g in data set [3] (brain) and 135 ng/mL in data set [3] (plasma). For the same compound, the Kp at 2 h in data set [3] amounted to 0.77.

On to `CC(=O)NS(=O)(=O)c1ccc(-c2cnc(N3CCOCC3)c3nc(CCc4ccc5ccccc5n4)cn23)cc1` [Cpd 63, N-((4-(8-Morpholino-2-(2-(quinolin-2-yl)ethyl)imidazo[1,2-a]pyrazin-5-yl)phenyl)sulfonyl)acetamide], for which the IC50 in data set [1] is under 1 nM. In addition, the concentration at 2 h in data set [3] (brain) amounted to 0 ng/g; in data set [3] (plasma), 2 ng/mL. The compound further displayed a Kp at 2 h in data set [3] of 0.

`Nc1ccc(-c2cnc(N3CCOCC3)c3nc(COc4ccc5ccccc5n4)cn23)cn1` [Cpd 122, 5-(8-Morpholino-2-((quinolin-2-yloxy)methyl)imidazo[1,2-a]pyrazin-5-yl)pyridin-2-amine methane sulfonic acid salt]: in data set [1], the IC50 amounted to 8 nM. For the same compound, the concentration at 2 h is 98.2 ng/g in data set [3] (brain) and 35.6 ng/mL in data set [3] (plasma).

`Cc1ccc(-c2cnc(N3CCOCC3)c3nc(COc4ccc5ccccc5n4)cn23)cn1` [Cpd 128, 4-(5-(6-Methylpyridin-3-yl)-2-((quinolin-2-yloxy)methyl)imidazo[1,2-a]pyrazin-8-yl)morpholine methane sulfonic acid salt]: the IC50 in data set [1] is 31 nM; in data set [2], 30 nM. The figures for the concentration at 2 h in data set [3] (brain) and in data set [3] (plasma) were 1.85 ng/g and 16.4 ng/mL, respectively. Further, in data set [3], the Kp at 2 h turned out to be 0.58.

In the case of `CC(=O)NS(=O)(=O)c1ccc(-c2cnc(N3CCOCC3)c3nc(/C=C/c4ccc5ccccc5n4)cn23)cc1` [Cpd 69, (E)-N-(4-(8-Morpholino-2-(2-(quinolin-2-yl)vinyl)imidazo[1,2-a]pyrazin-5-yl)phenylsulfonyl)acetamide trifluoroacetic acid salt], the IC50 in data set [1] and in data set [2] was 4 nM throughout. For the same compound, the results for the concentration at 2 h in data set [3] (brain) and in data set [3] (plasma) were 36.1 ng/g and 73.6 ng/mL, respectively. Besides, the Kp at 2 h in data set [3] turned out to be 1.

In the case of `O=c1[nH]c(-c2ccc(-c3cnc(N4CCOCC4)c4nc(/C=C/c5ccc6ccccc6n5)cn34)cn2)no1` [Cpd 95, (E)-3-(5-(8-Morpholino-2-(2-(quinolin-2-yl)vinyl)imidazo[1,2-a]pyrazin-5-yl)pyridin-2-yl)-1,2,4-oxadiazol-5-ol], the figures for the IC50 in data set [1] and in data set [2] were under 1 nM and 5 nM, respectively. Besides, the concentration at 2 h amounted to 0 ng/g in data set [3] (brain) and 113 ng/mL in data set [3] (plasma). The compound also came in with a Kp at 2 h in data set [3] of 0.

On to `O=c1[nH]c(-c2ccc(-c3cnc(N4CCOCC4)c4nc(CCc5ccc6ccccc6n5)cn34)cn2)no1` [Cpd 74, 3-[5-[8-(Morpholin-4-yl)-2-[2-(quinolin-2-yl)ethyl]imidazo[1,2-a]pyrazin-5-yl]pyridin-2-yl]-4,5-dihydro-1,2,4-oxadiazol-5-one], for which the values for the IC50 in data set [1] and in data set [2] were under 1 nM and 1 nM, respectively. Besides, the figures for the concentration at 2 h in data set [3] (brain) and in data set [3] (plasma) were 0 ng/g and 58 ng/mL, respectively. Also, in data set [3], the Kp at 2 h is 0.

With `O=C(O)c1ccc(-c2cnc(N3CCOCC3)c3nc(/C=C/c4ccc5ccccc5n4)cn23)cc1` [Cpd 16, (E)-4-(8-morpholino-2-(2-(quinolin-2-yl)vinyl)imidazo[1,2-a]pyrazin-5-yl)benzoic acid trifluoroacetic acid salt], the concentration at 2 h in data set [3] (brain) came to 0 ng/g; in data set [3] (plasma) it was 142 ng/mL. Further, the Kp at 2 h in data set [3] was 0.

As for `c1ccc2nc(OCc3cn4c(-c5ccc(-c6nnn[nH]6)nc5)cnc(N5CCOCC5)c4n3)ccc2c1` [Cpd 97, 4-(5-(6-(1H-Tetrazol-5-yl)pyridin-3-yl)-2-((quinolin-2-yloxy)methyl)imidazo[1,2-a]pyrazin-8-yl)morpholine], the IC50 in data set [1] and in data set [2] was 1 nM in each case. For the same compound, the concentration at 2 h came to 0 ng/g in data set [3] (brain) and 84 ng/mL in data set [3] (plasma). In data set [3], this compound registered a Kp at 2 h of 0.

On to `O=C(O)C1CCN(c2ccc(-c3cnc(N4CCOCC4)c4nc(/C=C/c5ccc6ccccc6n5)cn34)cc2)CC1` [Cpd 14, (E)-1-(4-(8-Morpholino-2-(2-(quinolin-2-yl)vinyl)imidazo[1,2-a]pyrazin-5-yl)phenyl)piperidine-4-carboxylic acid trifluoroacetic acid salt], for which the IC50 in data set [1] amounted to 11 nM; in data set [2], 6 nM. For the same compound, the concentration at 2 h in data set [3] (brain) is 35.5 ng/g; in data set [3] (plasma) it was 503 ng/mL. The same compound yielded a Kp at 2 h in data set [3] of 0.07.

Regarding `NS(=O)(=O)N1CCC(c2cnc(N3CCOCC3)c3nc(COc4ccc5ccccc5n4)cn23)CC1` [Cpd 109, 4-(8-Morpholino-2-((quinolin-2-yloxy)methyl)imidazo[1,2-a]pyrazin-5-yl)piperidine-1-sulfonamide trifluoroacetic acid salt], the IC50 is 87 nM in data set [1] and 110 nM in data set [2]. Also, the concentration at 2 h in data set [3] (brain) is 8.15 ng/g; in data set [3] (plasma) it was 226 ng/mL. The same compound gave a Kp at 2 h in data set [3] of 0.03.

As for `O=c1[nH]nnn1-c1ccc(-c2cnc(N3CCOCC3)c3nc(/C=C/c4ccc5ccccc5n4)cn23)cc1` [Cpd 55, (E)-1-(4-(8-Morpholino-2-(2-(quinolin-2-yl)vinyl)imidazo[1,2-a]pyrazin-5-yl)phenyl)-1H-tetrazol-5(4H)-one], the concentration at 2 h in data set [3] (brain) is 0 ng/g; in data set [3] (plasma), 118 ng/mL. Also, in data set [3], the Kp at 2 h worked out at 0.

`O=C(O)[C@@H]1CCCN1C(=O)c1ccc(-c2cnc(N3CCOCC3)c3nc(/C=C/c4ccc5ccccc5n4)cn23)cc1` [Cpd 45, (S,E)-1-(4-(8-Morpholino-2-(2-(quinolin-2-yl)vinyl)imidazo[1,2-a]pyrazin-5-yl)benzoyl)pyrrolidine-2-carboxylic acid trifluoroacetic acid salt]: the IC50 in data set [1] turned out to be 23 nM; in data set [2], 20 nM.

In the case of `O=C1NC(=O)C(c2ccc(-c3cnc(N4CCOCC4)c4nc(/C=C/c5ccc6ccccc6n5)cn34)cc2)O1` (stereo not drawn) [Cpd 48, (E)-5-(4-(8-Morpholino-2-(2-(quinolin-2-yl)vinyl)imidazo[1,2-a]pyrazin-5-yl)phenyl)oxazolidine-2,4-dione], the IC50 in data set [1] worked out at 37 nM; in data set [2] it was 11 nM.
